Reference: ChEMBL document CHEMBL3232938, “Design, synthesis, and biological evaluation of dihydroartemisinin-fluoroquinolone conjugates as a novel type of potential antitubercular agents” (2014)
Values after ≈ are worked out from the molar mass of the structure shown.

Columns and labels:
Assay type in all cases: functional
[1] = tested on: Pseudomonas aeruginosa; experiment: Antibacterial activity against Pseudomonas aeruginosa assessed as growth inhibition after 7 days by microtiter plate assay; settings: 168 h
[2] = tested on: Mycobacterium tuberculosis; experiment: Antibacterial activity against 0.5 ug/ml Mycobacterium tuberculosis H37Rv ATCC 27294 assessed as growth inhibition after 7 days by microtiter plate assay; settings: H37Rv ATCC 27294, 168 h
[3] = tested on: Salmonella; experiment: Antibacterial activity against Salmonella assessed as growth inhibition after 7 days by microtiter plate assay; settings: 168 h
[4] = tested on: Escherichia coli; experiment: Antibacterial activity against Escherichia coli assessed as zone of inhibition at 2 ug/ml; settings: read-out: DIZ
[5] = tested on: Escherichia coli; experiment: Antibacterial activity against Escherichia coli assessed as growth inhibition after 7 days by microtiter plate assay; settings: 168 h
[6] = tested on: Mycobacterium tuberculosis; experiment: Antibacterial activity against 1 ug/ml Mycobacterium tuberculosis H37Rv ATCC 27294 assessed as growth inhibition after 7 days by microtiter plate assay; settings: H37Rv ATCC 27294, 168 h
[7] = tested on: Salmonella; experiment: Antibacterial activity against Salmonella assessed as zone of inhibition at 2 ug/ml; settings: read-out: DIZ
[8] = tested on: Escherichia coli; experiment: Antibacterial activity against duck Escherichia coli assessed as growth inhibition after 7 days by microtiter plate assay; settings: 168 h
[9] = tested on: Staphylococcus aureus; experiment: Antibacterial activity against Staphylococcus aureus assessed as growth inhibition after 7 days by microtiter plate assay; settings: 168 h
[10] = tested on: Escherichia coli; experiment: Antibacterial activity against duck Escherichia coli assessed as zone of inhibition at 2 ug/ml; settings: read-out: DIZ
[11] = tested on: Staphylococcus aureus; experiment: Antibacterial activity against Staphylococcus aureus assessed as zone of inhibition at 2 ug/ml; settings: read-out: DIZ
[12] = tested on: Pseudomonas aeruginosa; experiment: Antibacterial activity against Pseudomonas aeruginosa assessed as zone of inhibition at 2 ug/ml; settings: read-out: DIZ
[13] = tested on: Mycobacterium tuberculosis; experiment: Antibacterial activity against drug-sensitive 1 ug/ml Mycobacterium tuberculosis clinical isolate 760 assessed as growth inhibition after 7 days by microtiter plate assay; settings: isolate 760, 168 h
[14] = tested on: Mycobacterium tuberculosis; experiment: Antibacterial activity against drug-sensitive 1 ug/ml Mycobacterium tuberculosis clinical isolate 753 assessed as growth inhibition after 7 days by microtiter plate assay; settings: isolate 753, 168 h
[15] = tested on: Mycobacterium tuberculosis; experiment: Antibacterial activity against drug-sensitive 1 ug/ml Mycobacterium tuberculosis clinical isolate 741 assessed as growth inhibition after 7 days by microtiter plate assay; settings: isolate 741, 168 h
[16] = tested on: Mycobacterium tuberculosis; experiment: Antibacterial activity against drug-sensitive 1 ug/ml Mycobacterium tuberculosis clinical isolate 821 assessed as growth inhibition after 7 days by microtiter plate assay; settings: isolate 821, 168 h
[17] = tested on: Mycobacterium tuberculosis; experiment: Antibacterial activity against drug-sensitive 1 ug/ml Mycobacterium tuberculosis clinical isolate 758 assessed as growth inhibition after 7 days by microtiter plate assay; settings: isolate 758, 168 h

Row | Structure (SMILES) | MIC [1] | MIC [2] | MIC [3] | zone of inhibition at 2 µg/mL [4] | MIC [5] | MIC [6] | zone of inhibition at 2 µg/mL [7] | MIC [8] | MIC [9] | zone of inhibition at 2 µg/mL [10] | zone of inhibition at 2 µg/mL [11] | zone of inhibition at 2 µg/mL [12] | MIC [13] | MIC [14] | MIC [15] | MIC [16] | MIC [17]
1 | C[C@H]1[C@@H](OCCCN2CCN(c3cc4c(cc3F)c(=O)c(C(=O)O)cn4-c3ccc(F)cc3)CC2)O[C@@H]2O[C@@]3(C)CC[C@H]4[C@H](C)CC[C@@H]1[C@@]24OO3 | 16 µg/mL (≈ 22.5 µM) | > 5.64 µM | 16 µg/mL (≈ 22.5 µM) | < 5 mm | 16 µg/mL (≈ 22.5 µM) | > 5.64 µM | 10 mm | 4 µg/mL (≈ 5.64 µM) | 16 µg/mL (≈ 22.5 µM) | < 5 mm | < 5 mm | < 5 mm |  |  |  |  | 
2 | C[C@H]1[C@@H](OCCCNC2CCN(c3c(F)cc4c(=O)c(C(=O)O)cn(C5CC5)c4c3Cl)C2)O[C@@H]2O[C@@]3(C)CC[C@H]4[C@H](C)CC[C@@H]1[C@@]24OO3 (some centres undefined) | 8 µg/mL (≈ 11.6 µM) | 0.181 µM (≈ 0.125 µg/mL) | 16 µg/mL (≈ 23.2 µM) | 7 mm | 8 µg/mL (≈ 11.6 µM) | 0.181 µM (≈ 0.125 µg/mL) | 10 mm | 8 µg/mL (≈ 11.6 µM) | 16 µg/mL (≈ 23.2 µM) | < 5 mm | < 5 mm | < 5 mm | 0.125 µg/mL (≈ 0.181 µM) | 0.125 µg/mL (≈ 0.181 µM) | 0.125 µg/mL (≈ 0.181 µM) | 1 µg/mL (≈ 1.45 µM) | 0.125 µg/mL (≈ 0.181 µM)
3 | CCn1cc(C(=O)O)c(=O)c2cc(F)c(N3CCN(C(=O)CCC(=O)O[C@H]4O[C@@H]5O[C@@]6(C)CC[C@H]7[C@H](C)CC[C@@H]([C@H]4C)[C@@]57OO6)CC3)cc21 | 16 µg/mL (≈ 23.3 µM) | > 5.83 µM | 16 µg/mL (≈ 23.3 µM) | 6 mm | 16 µg/mL (≈ 23.3 µM) | > 5.83 µM | < 5 mm | 16 µg/mL (≈ 23.3 µM) | 16 µg/mL (≈ 23.3 µM) | < 5 mm | < 5 mm | < 5 mm |  |  |  |  | 
4 | C[C@H]1[C@@H](OCCCN2CCN(c3cc4c(cc3F)c(=O)c(C(=O)O)cn4C3CC3)CC2)O[C@@H]2O[C@@]3(C)CC[C@H]4[C@H](C)CC[C@@H]1[C@@]24OO3 | 16 µg/mL (≈ 24.4 µM) | > 3.05 µM | 16 µg/mL (≈ 24.4 µM) | < 5 mm | 16 µg/mL (≈ 24.4 µM) | > 3.05 µM | < 5 mm | 16 µg/mL (≈ 24.4 µM) | 8 µg/mL (≈ 12.2 µM) | < 5 mm | < 5 mm | < 5 mm |  |  |  |  | 
5 | C[C@H]1[C@@H](OCCNC2CCN(c3c(F)cc4c(=O)c(C(=O)O)cn(C5CC5)c4c3Cl)C2)O[C@@H]2O[C@@]3(C)CC[C@H]4[C@H](C)CC[C@@H]1[C@@]24OO3 (some centres undefined) | 16 µg/mL (≈ 23.7 µM) | 0.092 µM (≈ 0.0622 µg/mL) | 16 µg/mL (≈ 23.7 µM) | 8 mm | 8 µg/mL (≈ 11.8 µM) | 0.185 µM (≈ 0.125 µg/mL) | 12 mm | 16 µg/mL (≈ 23.7 µM) | 16 µg/mL (≈ 23.7 µM) | 7 mm | < 5 mm | < 5 mm | 0.125 µg/mL (≈ 0.185 µM) | 0.125 µg/mL (≈ 0.185 µM) | 0.125 µg/mL (≈ 0.185 µM) | 0.25 µg/mL (≈ 0.37 µM) | 0.125 µg/mL (≈ 0.185 µM)
6 | C[C@H]1[C@@H](OC(=O)CCC(=O)NC2CCN(c3c(F)cc4c(=O)c(C(=O)O)cn(C5CC5)c4c3Cl)C2)O[C@@H]2O[C@@]3(C)CC[C@H]4[C@H](C)CC[C@@H]1[C@@]24OO3 (some centres undefined) | 16 µg/mL (≈ 21.9 µM) | 1.37 µM (≈ 1 µg/mL) | 16 µg/mL (≈ 21.9 µM) | 9 mm | 8 µg/mL (≈ 10.9 µM) | 2.73 µM (≈ 2 µg/mL) | 10 mm | 16 µg/mL (≈ 21.9 µM) | 8 µg/mL (≈ 10.9 µM) | < 5 mm | < 5 mm | < 5 mm |  |  |  |  | 
7 | C[C@H]1[C@@H](OC(=O)CCC(=O)N2CCN(c3cc4c(cc3F)c(=O)c(C(=O)O)cn4C3CC3)CC2)O[C@@H]2O[C@@]3(C)CC[C@H]4[C@H](C)CC[C@@H]1[C@@]24OO3 | 16 µg/mL (≈ 22.9 µM) | 2.07 µM (≈ 1.44 µg/mL) | 16 µg/mL (≈ 22.9 µM) | 9 mm | 16 µg/mL (≈ 22.9 µM) | 2.07 µM (≈ 1.44 µg/mL) | < 5 mm | 16 µg/mL (≈ 22.9 µM) | 16 µg/mL (≈ 22.9 µM) | < 5 mm | < 5 mm | < 5 mm |  |  |  |  | 
